Reference: article PMC10108347, “Heterobifunctional Ligase Recruiters Enable pan-Degradation of Inhibitor of Apoptosis Proteins” (Journal of Medicinal Chemistry, 2023)
Like-named read-outs stand apart in the source and are kept apart here. *1 amine or outer side, *2 acyl side, *3 side chain or, on linkers, in order; H or OH if unused. Where a SMILES comes first, the peptide text is derived from it. Bridges are numbered along the chain shown (N, C = ends). Roman numbers before positions name the chains, in order. [ ]: non-standard residue; d: D form. Hexamethylenediamine = C(CCCN[*:2])CCN[*:1]; dDip = N[C@@H](C(=O)O)C(c1ccccc1)c1ccccc1; Chg = N[C@H](C(=O)O)C1CCCCC1; dNMeA = CN[C@H](C)C(=O)O

Tests used:
physchem = conditions: pH 7.4
Protocol: The system was calibrated by plotting the retention times of six different drugs (atenolol, metoprolol, labetalol, diltiazem, triphenylene, and permethrin) versus their literature-known log D7.4 in a calibration line (R^2 = 0.99). Subsequently, the mean retention times of the analytes were taken to calculate their log D7.4 values with the aid of the calibration line. At least two independent measurements of each analyte were performed.

cIAP1 [1] = biological target: T1, cIAP1 (Homo sapiens, UniProt Q13490); assay: Immunoblotting (western blot) quantification of cIAP1 levels in MM.1S cells; conditions: 16 h; for remaining activity at 0.1 µM: MM1.S
[2] = test system: IAPs (cIAP1, cIAP2, XIAP); assay: Immunoblotting of IAPs in MM.1S cells, overall degradation profile, time course and washout; format: cell-based; conditions: 16 h, western blot, concentration (10 nM to 1 μM)
Protocol: Next, we examined the persistence of IAP degradation in MM.1S cells after a single exposure to 1 μM of 9 and subsequent removal of the compound. […] The reliance on CRL2^VHL was assessed with a neddylation inhibitor MLN4924, which blocks the activity of CRLs (Figure S13A).

cIAP2 = cIAP2 (Homo sapiens, UniProt Q13489); assay: Immunoblotting (western blot) quantification of cIAP2 levels in MM.1S cells; conditions: 16 h; for remaining activity at 0.1 µM: MM1.S
XIAP [3] = biological target: T2, XIAP (Homo sapiens, UniProt P98170); assay: Immunoblotting (western blot) quantification of XIAP levels in MM.1S cells; conditions: 16 h; for remaining activity at 0.1 µM: MM1.S
VHL30 = VHL30 (Homo sapiens, UniProt P40337); assay: Immunoblotting (western blot) quantification of VHL30 levels in MM.1S cells; conditions: for remaining activity at 0.1 µM: MM1.S, 16 h; for VHL30 degradation (in words): MM.1S cells, western blot
VHL19 = VHL19 (Homo sapiens, UniProt P40337); assay: Immunoblotting (western blot) quantification of VHL19 levels in MM.1S cells; conditions: 16 h
Protocol: To evaluate the capability of our panel of hetero-PROTACs for E3 ligase degradation, VHL19, VHL30, CRBN, cIAP1, cIAP2, and XIAP levels were quantified by western blot analyses. […] SDS-PAGE was performed, and proteins were then transferred onto PVDF membranes. Blotted membranes were blocked with 5% milk in Tris-buffered saline/Tween20 (TBST). Primary antibodies were diluted in 5% BSA in TBST, and incubations were performed overnight at 4 °C. Secondary HRP-conjugated antibodies diluted in 5% milk were incubated for 1 h at room temperature. Detection of proteins on PVDF was carried out using the WesternBright ECL HRP substrate or the WesternBright Sirius HRP substrate (Advansta, San Jose, USA) and imaged with LAS 4000× (Fujifilm). Membranes were subjected to 10 min incubation with Restore Western Blot Stripping Buffer (Thermo Fisher Scientific, Waltham, USA), followed by TBST washes. After brief re-activation with methanol, the membranes were blocked, and further probing of proteins was carried out.
Quantification of blots was performed using ImageJ software (National Institutes of Health).

cIAP1 [4] = biological target: T1, cIAP1; assay: Immunoblotting of cIAP1 in HG3 wild-type and HG3 VHL-knockout cells; format: cell-based; design: endogenous in cells; host or cells: MM.1S; conditions: 1 μM, 16 h
Protocol: (§1) Next, cellular activities of hetero-PROTACs 2, 4, and 6 were evaluated in chronic lymphocytic leukemia cells (HG3), for which a VHL-knockout cell line was created (Figure 5). […] Thus, VHL knockout confirmed the involvement of E3 ubiquitin ligase CRL2^VHL in the induced degradation of XIAP (and, at least in part, cIAP1) by these IAP-VHL heterobifunctional PROTACs. This provides additional evidence that the degradation of IAPs relies on the formation of a hetero–ternary complex consisting of both ligases and the degraders.
(§2) For generation of lentiviral vectors, HEK293T cells were transfected with constructs along with the packaging and envelope vectors. Viral supernatants were harvested 48 h after transfection and were used to transduce cell lines. MM.1S and HG3 cells were transduced with virus containing pLKO5d.SSF.SpCas9.P2a.BSD, and cells were selected with blasticidin. Selected cells were then transduced with respective sgRNA constructs targeting VHL, cIAP1, cIAP2, XIAP, and negative control luciferase, which were cloned into pLKO5.hU6.sgRNA.dTom. Transduction success was confirmed through FACS analysis 48 h post-transduction with a minimum efficiency of 95% tomato fluorescence.

XIAP [5] = biological target: T2, XIAP; assay: Immunoblotting of XIAP in HG3 wild-type and HG3 VHL-knockout cells; format: cell-based; design: endogenous in cells; host or cells: MM.1S; conditions: 1 μM, 16 h
Protocol: as §1, §2

[6] = MM.1S cells, western blot, 0.1 or 1 μM
[7] = read-out: %remaining protein VHL30, MM.1S cells, 16 h treatment at 0.1 μM, normalized to loading control and DMSO
[8] = read-out: %remaining protein cIAP1, MM.1S cells, 16 h treatment at 0.1 μM, normalized to loading control and DMSO
[9] = read-out: %remaining protein cIAP2, MM.1S cells, 16 h treatment at 0.1 μM, normalized to loading control and DMSO
[10] = read-out: %remaining protein XIAP, MM.1S cells, 16 h treatment at 0.1 μM, normalized to loading control and DMSO

T2 sequence (P98170 whole entry): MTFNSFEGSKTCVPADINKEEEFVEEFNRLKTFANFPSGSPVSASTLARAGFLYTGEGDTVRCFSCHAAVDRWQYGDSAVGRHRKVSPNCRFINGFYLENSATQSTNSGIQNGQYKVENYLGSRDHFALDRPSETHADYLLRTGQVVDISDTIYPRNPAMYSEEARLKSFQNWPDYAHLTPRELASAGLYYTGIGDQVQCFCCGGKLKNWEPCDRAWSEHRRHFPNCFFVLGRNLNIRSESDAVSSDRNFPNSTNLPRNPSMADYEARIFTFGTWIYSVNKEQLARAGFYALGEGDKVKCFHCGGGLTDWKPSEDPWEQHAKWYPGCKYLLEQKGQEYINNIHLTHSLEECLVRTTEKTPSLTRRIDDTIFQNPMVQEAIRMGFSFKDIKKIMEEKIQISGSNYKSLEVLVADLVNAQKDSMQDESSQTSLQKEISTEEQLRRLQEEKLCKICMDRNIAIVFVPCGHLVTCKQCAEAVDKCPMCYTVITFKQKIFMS
T1 sequence (Q13490 whole entry): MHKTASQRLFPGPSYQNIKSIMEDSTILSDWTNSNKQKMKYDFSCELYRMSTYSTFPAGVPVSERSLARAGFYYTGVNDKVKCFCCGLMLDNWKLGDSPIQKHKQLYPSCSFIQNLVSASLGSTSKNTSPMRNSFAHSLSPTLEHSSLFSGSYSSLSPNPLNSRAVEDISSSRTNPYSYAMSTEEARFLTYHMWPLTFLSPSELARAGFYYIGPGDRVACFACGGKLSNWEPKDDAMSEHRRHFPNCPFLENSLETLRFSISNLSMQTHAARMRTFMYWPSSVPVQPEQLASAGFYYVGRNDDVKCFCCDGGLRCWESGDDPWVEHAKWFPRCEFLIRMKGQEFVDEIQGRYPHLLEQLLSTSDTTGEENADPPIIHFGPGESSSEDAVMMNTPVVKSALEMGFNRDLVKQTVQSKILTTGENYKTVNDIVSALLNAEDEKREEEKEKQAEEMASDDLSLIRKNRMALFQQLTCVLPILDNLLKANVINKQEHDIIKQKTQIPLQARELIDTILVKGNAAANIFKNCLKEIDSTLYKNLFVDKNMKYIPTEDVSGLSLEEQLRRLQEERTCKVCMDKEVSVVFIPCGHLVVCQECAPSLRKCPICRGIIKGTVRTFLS
Sequence of VHL30 (P40337 whole entry): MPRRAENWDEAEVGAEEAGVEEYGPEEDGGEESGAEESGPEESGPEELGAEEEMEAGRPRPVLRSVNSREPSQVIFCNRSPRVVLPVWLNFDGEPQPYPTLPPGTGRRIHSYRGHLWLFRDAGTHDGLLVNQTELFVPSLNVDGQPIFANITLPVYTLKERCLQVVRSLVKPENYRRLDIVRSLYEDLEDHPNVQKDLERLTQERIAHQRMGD
Sequence of cIAP2 (Q13489 whole entry): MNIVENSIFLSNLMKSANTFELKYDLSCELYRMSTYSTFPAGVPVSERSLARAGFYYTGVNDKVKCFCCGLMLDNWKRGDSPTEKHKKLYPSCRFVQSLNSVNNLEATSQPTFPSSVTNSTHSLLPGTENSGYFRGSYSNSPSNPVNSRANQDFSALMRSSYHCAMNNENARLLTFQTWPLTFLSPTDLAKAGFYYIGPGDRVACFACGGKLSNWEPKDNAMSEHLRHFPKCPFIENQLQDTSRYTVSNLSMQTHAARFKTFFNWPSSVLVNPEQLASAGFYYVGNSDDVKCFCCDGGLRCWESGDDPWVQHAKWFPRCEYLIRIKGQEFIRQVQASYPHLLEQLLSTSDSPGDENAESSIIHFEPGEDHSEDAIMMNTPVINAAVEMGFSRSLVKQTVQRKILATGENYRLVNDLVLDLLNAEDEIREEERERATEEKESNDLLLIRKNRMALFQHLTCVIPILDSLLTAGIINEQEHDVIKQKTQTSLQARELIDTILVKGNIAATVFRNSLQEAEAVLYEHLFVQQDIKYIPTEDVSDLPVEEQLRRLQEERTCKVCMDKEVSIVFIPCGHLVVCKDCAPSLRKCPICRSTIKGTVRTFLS
Sequence of VHL19 (P40337 54-213): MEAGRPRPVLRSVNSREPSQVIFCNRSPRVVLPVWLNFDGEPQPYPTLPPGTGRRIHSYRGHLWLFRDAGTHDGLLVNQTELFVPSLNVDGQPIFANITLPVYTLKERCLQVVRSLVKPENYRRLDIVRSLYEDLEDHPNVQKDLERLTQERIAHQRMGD

SMILES | chromatographic logD (physchem) | cIAP1 degradation (in words) (cIAP1 [1]; [6]) | IAP degradation profile (in words) [2] | cIAP2 degradation (in words) (cIAP2; [6]) | XIAP degradation (in words) (XIAP [3]; [6]) | remaining activity at 0.1 µM (VHL30; [7]) [%] | VHL30 degradation (in words) (VHL30) | remaining activity at 0.1 µM (cIAP1 [1]; [8]) [%] | remaining VHL19 (VHL19; 1 μM) [%] | remaining activity at 0.1 µM (cIAP2; [9]) [%] | remaining activity at 0.1 µM (XIAP [3]; [10]) [%] | VHL19 degradation (in words) (VHL19; western blot) | cIAP1 degradation in VHL+/+ and VHL–/– HG3 cells (in words) (cIAP1 [4]) | XIAP degradation in VHL+/+ and VHL–/– HG3 cells (in words) (XIAP [5]) | remaining activity at 0.1 µM (VHL30; read-out: %remaining protein VHL30) [%] | remaining activity at 0.1 µM (cIAP1 [1]; read-out: %remaining protein cIAP1) [%] | remaining activity at 0.1 µM (cIAP2; read-out: %remaining protein cIAP2) [%] | remaining activity at 0.1 µM (XIAP [3]; read-out: %remaining protein XIAP) [%]
CN[C@H](C)C(=O)N[C@H](C(=O)N1CCC[C@@H]1C(=O)N[C@@H](C(=O)NCCCCCCNC(=O)[C@H](NC(=O)[C@H]1CCCN1C(=O)[C@@H](NC(=O)[C@@H](C)NC)C1CCCCC1)C(c1ccccc1)c1ccccc1)C(c1ccccc1)c1ccccc1)C1CCCCC1 [BV6, reference compound] (I: H-[dNMeA][Chg][dP][dDip] / II: H-[dNMeA][Chg][dP][dDip]; linker I:C-II:C via Hexamethylenediamine) | 3.4 | substantial degradation | potent cIAP autodegradation | substantial degradation | failed to degrade XIAP |  |  |  |  |  |  |  |  |  |  |  |  | 
CN[C@@H](C)C(=O)N[C@H](C(=O)N1C[C@@H](Oc2cccc(OCCCCC(=O)N[C@H](C(=O)N3C[C@H](O)C[C@H]3C(=O)NCc3ccc(-c4scnc4C)cc3)C(C)(C)C)c2)C[C@H]1C(=O)N[C@@H]1CCCc2ccccc21)C1CCCCC1 [PROTAC 1, (2S,4S)-1-((S)-2-Cyclohexyl-2-((S)-2-(methylamino)propanamido)acetyl)-4-(3-((5-(((S)-1-((2S,4R)-4-hydroxy-2-((4-(4-methylthiazol-5-yl)benzyl)carbamoyl)pyrrolidin-1-yl)-3,3-dimethyl-1-oxobutan-2-yl)amino)-5-oxopentyl)oxy)phenoxy)-N-((R)-1,2,3,4-tetrahydronaphthalen-1-yl)pyrrolidine-2-carboxamide] |  |  | pan-IAP degrader |  |  | 36 | strong and dose-dependent VHL30 degradation | 7 | 42 | 33 | 5 |  |  |  |  |  |  | 
CN[C@@H](C)C(=O)N[C@H](C(=O)N1C[C@@H](Oc2cccc(OCCCCCCCC(=O)N[C@H](C(=O)N3C[C@H](O)C[C@H]3C(=O)NCc3ccc(-c4scnc4C)cc3)C(C)(C)C)c2)C[C@H]1C(=O)N[C@@H]1CCCc2ccccc21)C1CCCCC1 [PROTAC 2, (2S,4S)-1-((S)-2-Cyclohexyl-2-((S)-2-(methylamino)propanamido)acetyl)-4-(3-((8-(((S)-1-((2S,4R)-4-hydroxy-2-((4-(4-methylthiazol-5-yl)benzyl)carbamoyl)pyrrolidin-1-yl)-3,3-dimethyl-1-oxobutan-2-yl)amino)-8-oxooctyl)oxy)phenoxy)-N-((R)-1,2,3,4-tetrahydronaphthalen-1-yl)pyrrolidine-2-carboxamide] |  |  |  |  |  | 28 | strong and dose-dependent VHL30 degradation | 4 |  | 23 | 5 | slight hook effect for VHL19 degradation | cIAP1 autodegradation was observed | occurred only in HG3 wild-type cells |  |  |  | 
CN[C@@H](C)C(=O)N[C@H](C(=O)N1C[C@@H](Oc2cccc(OCCOCCOCC(=O)N[C@H](C(=O)N3C[C@H](O)C[C@H]3C(=O)NCc3ccc(-c4scnc4C)cc3)C(C)(C)C)c2)C[C@H]1C(=O)N[C@@H]1CCCc2ccccc21)C1CCCCC1 [PROTAC 4, (2S,4S)-1-((S)-2-Cyclohexyl-2-((S)-2-(methylamino)propanamido)acetyl)-4-(3-(2-(2-(2-(((S)-1-((2S,4R)-4-hydroxy-2-((4-(4-methylthiazol-5-yl)benzyl)carbamoyl)pyrrolidin-1-yl)-3,3-dimethyl-1-oxobutan-2-yl)amino)-2-oxoethoxy)ethoxy)ethoxy)phenoxy)-N-((R)-1,2,3,4-tetrahydronaphthalen-1-yl)pyrrolidine-2-carboxamide] |  |  |  |  |  | 44 |  | 4 |  | 40 | 7 |  | cIAP1 autodegradation was observed | occurred only in HG3 wild-type cells |  |  |  | 
CN[C@@H](C)C(=O)N[C@H](C(=O)N1C[C@@H](Oc2cccc(OCCCCCCOCCCCCCOCC(=O)N[C@H](C(=O)N3C[C@H](O)C[C@H]3C(=O)NCc3ccc(-c4scnc4C)cc3)C(C)(C)C)c2)C[C@H]1C(=O)N[C@@H]1CCCc2ccccc21)C1CCCCC1 [PROTAC 6, (2S,4S)-1-((S)-2-Cyclohexyl-2-((S)-2-(methylamino)propanamido)acetyl)-4-(3-((6-((6-(2-(((S)-1-((2S,4R)-4-hydroxy-2-((4-(4-methylthiazol-5-yl)benzyl)carbamoyl)pyrrolidin-1-yl)-3,3-dimethyl-1-oxobutan-2-yl)amino)-2-oxoethoxy)hexyl)oxy)hexyl)oxy)phenoxy)-N-((R)-1,2,3,4-tetrahydronaphthalen-1-yl)pyrrolidine-2-carboxamide] |  |  |  |  |  |  |  |  |  |  |  |  | cIAP1 autodegradation was observed | occurred only in HG3 wild-type cells | 78 | 2 | 29 | 2
